Bridge positions count the residues as written; N and C are the ends. Square brackets hold non-standard residues; d marks the D form. Peptide text beside a SMILES is read from it. * marks the point of attachment. 2Nal = N[C@@H](Cc1ccc2ccccc2c1)C(=O)O; Benzoyl(4-F) = O=C(c1ccc(F)cc1)*; Cit = NC(=O)NCCC[C@H](N)C(=O)O
Key:
[1] = tested on: granulocytes (GR-1 positive cells); test: Granulocyte (GR-1 positive) counts in blood and bone marrow in a chemotherapy model; format: in vivo, mice; settings: CPM 250 mg/kg total i.p.; 4F-benzoyl-TN14003 5 mg/kg s.c., G-CSF 5 μg/mouse
Procedure: Mice received a total dose of 250 mg/kg cyclophosphamide (CPM) by two 0.25 ml intra-peritoneal injections scheduled at day 0 (150 mg/kg) and day 3 (100 mg/kg). Mice were subcutaneously treated with 0.2 ml of 4F-benzoyl-TN14003 (5 mg/kg) at the indicated time points, as detailed in FIG. 13A. Flow cytometery was used to assess the number of cells in the blood and bone marrow (BM), and distinguish between the different populations. Cells were gated according to forward scatter and side scatter to exclude dead cells and to identify granulocytes (GR-1 positive cells).
Mice received a total dose of 250 mg/kg CPM by two 0.25 ml intra-peritoneal injections scheduled at day 0 (150 mg/kg) and day 3 (100 mg/kg). Mice were subcutaneously treated with 0.2 ml of 4F-benzoyl-TN14003 (5 mg/kg) or G-CSF 5 μg/mouse or the combination of both at the indicated time points as detailed in FIG. 14A. Flow cytometery was used to assess the number of cells in the blood and bone marrow (BM) and distinguish between the different populations. Cells were gated according to forward scatter and side scatter to exclude dead cells and to determine granulocytes (GR-1 positive cells).

white-blood-cells (WBC) = format: in vivo
proerythroblast cells = test: Proerythroblasts in blood, FACS with anti-Ter-119; format: in vivo, C57BL/6 mice; settings: 5 mg/kg s.c.; 2 hours
Procedure: To assess the number of cells in blood and BM, and to distinguish between the different populations, FACScan flow cytometer was used. Cells derived from these organs were gated according to forward scatter and side scatter to exclude dead cells and to determine granulocytes, mononuclear cells and activated macrophage populations. The number of each cell population was counted. Cells were also stained in 0.1 ml FACS buffer with fluorescence antibodies directed against Gr-1, CD3, mac-1, F4/80, Nk1.1, B220 and Ter-119 molecules or matched isotype controls (all from eBiosience, San Diego, Calif.) for 30 min and washed with FACS buffer.
C57BL/6 mice were s.c. injected with 5 mg/kg 4F-benzoyl-TN14003. 2 hours later blood was obtained and the number of proerythroblast cells was evaluated by FACS following staining with anti-Ter-119 (FITC). Data are expressed as average±SD of five mice/group.

PC3 cells = test: MIP3α secretion by PC3 prostate cells (ELISA); format: cell-based
Description: (§1) A PC3 prostate cell line that overexpresses high levels of CXCR4 was generated. […] FIG. 1A presents FACS histograms of PC3 cells (left panel) and a single cell clone with stable overexpression of CXCR4, GFP and luc genes (PC3-CXCR4.5, right panel) that were stained for the control (IgG2a-PE, full histograms) and CXCR4 (IgG2a-12G5, empty histograms) antibodies.
(§2) In this example, regulation of the chemokine MIP3α (macrophage inflammatory protein 3α) was examined. […] In FIG. 1B, PC3 (left panel) and PC3-CXCR4.5 (right panel) cells were stimulated with the indicated concentrations of CXCL12 for 48 hours and MIP3α secretion was assessed by ELISA. The results represent the average of triplicates±STDEV.
(§3) The effects of the CXCR4 antagonist AMD3100 and of 4F-benzoyl-TN14003 (4FB-TN14003), hitherto known as a CXCR4 antagonist, on MIP3α secretion were further tested. […] In FIG. 10, CXCR4 signaling in PC3 (left panel) and PC3-CXCR4.5 (right panel) cells was inhibited with anti-CXCL12 antibodies (αCXCL12) and Pertussis toxin (PTX) treatments alone or in combination with CXCL12, as indicated. Secretion of MIP3α was assessed by ELISA. The results represent the average of triplicates±STDEV.

[2] = tested on: hematopoietic stem cells (HSCs); test: Hematopoietic stem cell assay: transplantation of mobilized blood cells into lethally irradiated mice, survival; format: in vivo, C57BL/6 mice; settings: 2 h
Procedure: C57BL/6 mice, served as donors, were injected with 5 mg/kg of either 4F-benzoyl-TN14003 or AMD3100. 2 h later peripheral blood cells were collected following by ACK lysis and transferred into C57BL/6 recipient mice that were given a lethal dosing of irradiation (900 cGy) 24 h before i.v. injection of cells. A total cell obtained from 900 or 225 microliter of blood was transferred into single recipient mouse in a total volume of 200 μl PBS. Recipient mice transferred with cells obtained from blood of untreated mice or with normal BM cells were served as controls. Survival of mice was monitored for 4 months.
Although mobilization of HPCs may be of use for short-term repopulation in a transplantation setting, HSCs are required for long-term repopulation. To assess the effect of 4F-benzoyl-TN14003 on mobilization of murine HSCs, a transplantation model was used, in which donor C57Bl/6 mice were treated with 4F-benzoyl-TN14003 or AMD3100. After 2 h, blood was collected and cells isolated from an equal volume of blood obtained from each treated group (900 or 225 microliter in different experiments) were transferred for engraftment in lethally irradiated recipient C57Bl/6 mice. Survival of the recipient mice, indicative for long-term repopulating (LTR) activity and presence of HSCs, was monitored.

Streptococcus A = test: Survival of mice upon bacterial infection in a chemotherapy model; format: in vivo; settings: CPM 250 mg/kg total; Streptococcus A 10^8/mouse s.c. day 0; 4F-benzoyl-TN14003 5 mg/kg s.c., G-CSF 5 μg/mouse
Procedure: Mice received a total dose of 250 mg/kg CPM by two 0.25 ml intra-peritoneal injections scheduled at day −5 (150 mg/kg) and day −2 (100 mg/kg). Mice were subcutaneously treated with 0.2 ml of 4F-benzoyl-TN14003 (5 mg/kg), alone or in combination with G-CSF (5 μg/mouse), at the time points indicated in FIG. 15A. On day 0, Streptococcus A were subcutaneously injected (10^8/mouse) and the mice were then treated as detailed in FIG. 15A.

PC3-CXCR4.5 cells = test: MIP3α secretion by CXCR4-overexpressing PC3-CXCR4.5 cells (ELISA); format: cell-based; settings: transfection with CXCR4-specific or control siRNA
Description: as §1, §2, §3
Spontaneous secretion of MIP3α is CXCL12 and PTX independent in these cells.

[3] = 5 mg/kg s.c. 4F-benzoyl-TN14003 or AMD3100, 2 h, G-CSF 2.5 μg s.c. twice a day for 4 days, combination 18 h after last G-CSF
[4] = peak at 10 mg/kg s.c., 2 hours post-injection

## N=C(N)NCCC[C@H](NC(=O)[C@@H]1CSSC[C@H](NC(=O)[C@H](Cc2ccc3ccccc3c2)NC(=O)[C@H](CCCNC(=N)N)NC(=O)[C@H](CCCNC(=N)N)NC(=O)c2ccc(F)cc2)C(=O)N[C@@H](Cc2ccc(O)cc2)C(=O)N[C@@H](CCCNC(N)=O)C(=O)N[C@@H](CCCCN)C(=O)N[C@H](CCCCN)C(=O)N2CCC[C@H]2C(=O)N[C@@H](Cc2ccc(O)cc2)C(=O)N[C@@H](CCCNC(=N)N)C(=O)N[C@@H](CCCNC(N)=O)C(=O)N1)C(N)=O [4F-benzoyl-TN14003, 4F-benzoly-Arg-Arg-Nal-Cys-Tyr-Cit-Lys-DLys-Pro-Tyr-Arg-Cit-Cys-Arg-NH2] ({Benzoyl(4-F)}-RR[2Nal]CY[Cit]K[dK]PYR[Cit]CR-NH2; disulfide 4-13)
[1]
  GR-1 positive cells in the blood (flow cytometry): mobilize GR-1 positive cells to the blood and reduce neutropenia
  relative numbers (ratio) of GR-1 positive cells in the blood and BM: release cells from the inhibitory effect of the BM stroma
white-blood-cells (WBC); 5 mg/kg s.c.
  MNCs in the blood, full return to the baseline level: 4 h
  activated macrophages in the blood, return to the baseline level: 24 h
  activated macrophages in the blood, time of peak: 1 h
  neutrophils in the blood, decrease to the baseline level: 24 h
  neutrophils in the blood, time of peak: 1 to 2 h
white-blood-cells (WBC); [3]
  Activated macrophages, fold elevation of cell counts from control: 4.2 fold
  MNC, fold elevation of cell counts from control: 2.3 fold
  Neutrophils, fold elevation of cell counts from control: 6.1 fold
white-blood-cells (WBC); 5 mg/kg s.c., after 30 minutes
  mononuclear cells (MNCs) in the blood, fold elevation from control: 2 fold
white-blood-cells (WBC); 5 mg/kg s.c., peak after 1 to 2 hours
  number of neutrophils in the blood, fold change from control at peak: > 12 fold
white-blood-cells (WBC); dose 5 mg/kg s.c., 2 hours post-injection
  number of WBC in blood, fold elevation compared to control mice (peak of dose response): 2.5 fold
white-blood-cells (WBC); intact mice, 5 mg/kg s.c.
  number of white blood cells within the BM: no changes were observed
white-blood-cells (WBC); [4]
  MNCs in blood, fold change from control: 3.5 fold
  absolute number of neutrophils in blood, fold change compared to control: ~8 fold
  activated macrophages in blood, fold change from control: 6 fold
white-blood-cells (WBC); single dose 5 mg/kg s.c.
  total WBC in blood, full return to the baseline level: 24 h
white-blood-cells (WBC); single dose 5 mg/kg s.c., after 30 minutes
  number of total WBC in blood, fold change from control: 2 fold
white-blood-cells (WBC); staining CD3, B220, Mac-1
  mobilization of T cells, B cells and monocytes (FACS): had an effect on the mobilization of T cells, B cells and monocytes
white-blood-cells (WBC); staining Nk1.1
  mobilization of NK cells (FACS): had no effect on the mobilization of NK cells
Proerythroblast cells
  number of proerythroblasts (Ter119) in blood, fold elevation from the control level: 3.2 fold
PC3 cells
  MIP3α secretion: induced in both cell lines MIP3α secretion in an agonist manner
[2]; cells from 225 microliter of blood of donors given 5 mg/kg, day 33 post transplantation
  survival of lethally irradiated recipient mice: 70.6%
[2]; cells from 900 microliter of blood of donors given 5 mg/kg, until day 42 post transplantation
  survival of lethally irradiated recipient mice: one hundred
Streptococcus A
  survival of mice after Streptococcus A infection: save the mice from death induced by the pathogen
PC3-CXCR4.5 cells
  CXCR4 dependence of induced MIP3α secretion: CXCR4 dependent

From patent publication US8455450B2, “Methods for obtaining a therapeutically effective amount of hematopoietic precursor cells and long term engraftment thereof” (Biokine Therapeutics Ltd., priority 2006, dated 2013)
